pIC50: −log10 of the molar value. One block for each compound: values may come before it.
Assays:
[1] = Half life in Sprague-Dawley rat at 5 mg/kg, IG measured up to 24 hrs by LCMS analysis; type: ADME, organism-based; conditions: in vivo, po
[2] = Half life in Sprague-Dawley rat at 1 mg/kg, iv measured up to 24 hrs by LCMS analysis; type: ADME, organism-based; conditions: in vivo
[3] = molecular target: Cytochrome P450 2C9 (Homo sapiens, UniProt P11712); assay: Inhibition of CYP2C9 in human liver microsomes using tolbutamide as substrate incubated for 15 to 45 mins in presence of NADPH
Cytochrome P450 2C9, sequence (P11712 whole entry): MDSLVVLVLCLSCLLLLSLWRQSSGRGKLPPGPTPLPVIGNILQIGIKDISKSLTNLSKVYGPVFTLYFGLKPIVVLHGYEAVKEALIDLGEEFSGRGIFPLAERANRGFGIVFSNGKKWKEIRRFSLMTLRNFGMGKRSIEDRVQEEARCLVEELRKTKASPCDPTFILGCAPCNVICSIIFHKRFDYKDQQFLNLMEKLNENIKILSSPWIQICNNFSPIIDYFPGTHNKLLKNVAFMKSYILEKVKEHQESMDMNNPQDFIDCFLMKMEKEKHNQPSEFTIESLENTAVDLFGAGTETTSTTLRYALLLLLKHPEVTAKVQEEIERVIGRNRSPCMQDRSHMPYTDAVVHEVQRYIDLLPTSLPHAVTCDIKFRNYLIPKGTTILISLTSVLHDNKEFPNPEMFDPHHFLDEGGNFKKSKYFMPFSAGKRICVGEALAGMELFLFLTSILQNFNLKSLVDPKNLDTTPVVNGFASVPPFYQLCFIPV

[4] = Acute toxicity in fasted female mouse assessed as pathological changes in kidney at 2 g/Kg, IG administered as single dose measured after 14 days by HE staining based assay; type: tissue-based; conditions: in vivo, po, 2000 mg/kg, 336 h, time 14 day
[5] = molecular target: Cytochrome P450 2C19 (Homo sapiens, UniProt P33261); assay: Inhibition of CYP2C19 in human liver microsomes using S-mephenytoin as substrate incubated for 15 to 45 mins in presence of NADPH; type: ADME
Cytochrome P450 2C19, sequence (P33261 whole entry): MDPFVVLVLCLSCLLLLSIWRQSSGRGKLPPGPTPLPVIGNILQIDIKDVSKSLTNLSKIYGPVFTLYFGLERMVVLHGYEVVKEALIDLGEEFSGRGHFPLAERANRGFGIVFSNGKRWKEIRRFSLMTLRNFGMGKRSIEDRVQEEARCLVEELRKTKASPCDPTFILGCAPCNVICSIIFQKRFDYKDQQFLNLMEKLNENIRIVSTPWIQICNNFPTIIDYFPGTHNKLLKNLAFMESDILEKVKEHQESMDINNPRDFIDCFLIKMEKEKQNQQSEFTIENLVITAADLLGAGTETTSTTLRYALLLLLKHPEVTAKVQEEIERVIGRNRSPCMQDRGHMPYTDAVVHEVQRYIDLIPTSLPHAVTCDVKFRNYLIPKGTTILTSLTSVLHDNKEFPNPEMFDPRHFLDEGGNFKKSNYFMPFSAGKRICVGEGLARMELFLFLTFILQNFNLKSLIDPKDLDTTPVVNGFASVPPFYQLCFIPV

[6] = molecular target: Cytochrome P450 2D6 (Homo sapiens, UniProt P10635); assay: Inhibition of CYP2D6 in human liver microsomes using dextromethorphan as substrate incubated for 15 to 45 mins in presence of NADPH; type: ADME
Cytochrome P450 2D6, sequence (P10635 whole entry): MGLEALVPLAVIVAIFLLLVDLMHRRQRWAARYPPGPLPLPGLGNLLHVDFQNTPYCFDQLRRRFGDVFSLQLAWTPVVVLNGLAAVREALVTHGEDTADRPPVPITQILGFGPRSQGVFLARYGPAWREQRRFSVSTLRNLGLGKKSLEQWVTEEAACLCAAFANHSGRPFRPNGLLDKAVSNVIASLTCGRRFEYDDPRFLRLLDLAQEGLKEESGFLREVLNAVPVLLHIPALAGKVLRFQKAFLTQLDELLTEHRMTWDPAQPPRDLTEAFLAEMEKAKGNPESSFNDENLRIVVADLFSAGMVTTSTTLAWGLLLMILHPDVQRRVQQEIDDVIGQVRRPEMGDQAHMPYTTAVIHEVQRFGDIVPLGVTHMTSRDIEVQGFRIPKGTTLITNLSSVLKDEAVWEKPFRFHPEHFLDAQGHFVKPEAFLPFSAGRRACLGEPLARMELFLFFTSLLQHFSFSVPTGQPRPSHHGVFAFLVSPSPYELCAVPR

[7] = Acute toxicity in fasted female mouse assessed as pathological changes in lung at 2 g/Kg, IG administered as single dose measured after 14 days by HE staining based assay; type: tissue-based; conditions: in vivo, po, 2000 mg/kg, 336 h, time 14 day
[8] = Acute toxicity in fasted male mouse assessed as abnormal behavior at 2 g/Kg, IG administered as single dose measured every day for 14 days; conditions: in vivo, po, 2000 mg/kg, 336 h, time 14 day
[9] = molecular target: T1, Cytochrome P450 1A2 (Homo sapiens, UniProt P05177); assay: Inhibition of CYP1A2 in human liver microsomes using phenacetin as substrate incubated for 15 to 45 mins in presence of NADPH; type: ADME
T1 sequence (P05177 whole entry): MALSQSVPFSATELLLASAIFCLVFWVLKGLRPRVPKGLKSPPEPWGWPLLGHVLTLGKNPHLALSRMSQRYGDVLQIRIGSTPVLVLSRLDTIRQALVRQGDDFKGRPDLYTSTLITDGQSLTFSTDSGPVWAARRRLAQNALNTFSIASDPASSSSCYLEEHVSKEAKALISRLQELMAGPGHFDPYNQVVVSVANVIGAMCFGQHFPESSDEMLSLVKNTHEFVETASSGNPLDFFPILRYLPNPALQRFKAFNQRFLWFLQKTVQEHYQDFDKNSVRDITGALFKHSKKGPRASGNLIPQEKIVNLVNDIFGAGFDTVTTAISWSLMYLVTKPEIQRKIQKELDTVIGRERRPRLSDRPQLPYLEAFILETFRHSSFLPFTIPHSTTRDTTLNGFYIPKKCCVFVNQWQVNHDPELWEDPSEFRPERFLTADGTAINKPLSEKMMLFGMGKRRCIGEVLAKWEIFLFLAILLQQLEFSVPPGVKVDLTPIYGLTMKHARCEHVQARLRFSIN

[10] = Metabolic stability in rat liver microsomes assessed as intrinsic clearance at 1 uM presence of NADPH measured up to 60 mins by LC-MS/MS analysis; type: ADME, Microsome; conditions: read-out: CLH
[11] = Metabolic stability in mouse liver microsomes assessed as half life at 1 uM presence of NADPH measured up to 60 mins by LC-MS/MS analysis; type: ADME, Microsome
[12] = Acute toxicity in fasted female mouse assessed as death at 2 g/Kg, IG administered as single dose measured every day for 14 days; conditions: in vivo, po, 2000 mg/kg, 336 h, time 14 day
[13] = Metabolic stability in human liver microsomes assessed as intrinsic clearance at 1 uM presence of NADPH measured up to 60 mins by LC-MS/MS analysis; type: ADME, Microsome; conditions: read-out: CLH
[14] = Acute toxicity in fasted female mouse assessed as abnormal behavior at 2 g/Kg, IG administered as single dose measured every day for 14 days; conditions: in vivo, po, 2000 mg/kg, 336 h, time 14 day
[15] = Acute toxicity in fasted male mouse assessed as increase in body weight at 2 g/Kg, IG administered as single dose measured every day for 14 days; conditions: in vivo, po, 2000 mg/kg, 336 h, time 14 day
[16] = Acute toxicity in fasted female mouse assessed as pathological changes in brain at 2 g/Kg, IG administered as single dose measured after 14 days by HE staining based assay; type: tissue-based; conditions: in vivo, po, 2000 mg/kg, 336 h, time 14 day
[17] = Oral bioavailability in Sprague-Dawley rat at 5 mg/kg administered via gavage measured up to 24 hrs by LCMS analysis; type: ADME, organism-based; conditions: in vivo
[18] = Metabolic stability in human liver microsomes assessed as half life at 1 uM presence of NADPH measured up to 60 mins by LC-MS/MS analysis; type: ADME, Microsome
[19] = Acute toxicity in fasted male mouse assessed as pathological changes in spleen at 2 g/Kg, IG administered as single dose measured after 14 days by HE staining based assay; type: tissue-based; conditions: in vivo, po, 2000 mg/kg, 336 h, time 14 day
[20] = Acute toxicity in fasted male mouse assessed as pathological changes in heart at 2 g/Kg, IG administered as single dose measured after 14 days by HE staining based assay; type: tissue-based; conditions: in vivo, po, 2000 mg/kg, 336 h, time 14 day
[21] = Acute toxicity in fasted male mouse assessed as pathological changes in lung at 2 g/Kg, IG administered as single dose measured after 14 days by HE staining based assay; type: tissue-based; conditions: in vivo, po, 2000 mg/kg, 336 h, time 14 day
[22] = Tmax in Sprague-Dawley rat at 5 mg/kg, po administered via gavage measured up to 24 hrs by LCMS analysis; type: ADME, organism-based; conditions: in vivo
[23] = Metabolic stability in mouse liver microsomes assessed as intrinsic clearance at 1 uM presence of NADPH measured up to 60 mins by LC-MS/MS analysis; type: ADME, Microsome; conditions: read-out: CLH
[24] = Acute toxicity in fasted female mouse assessed as pathological changes in liver at 2 g/Kg, IG administered as single dose measured after 14 days by HE staining based assay; type: tissue-based; conditions: in vivo, po, 2000 mg/kg, 336 h, time 14 day
[25] = Acute toxicity in fasted female mouse assessed as pathological changes in spleen at 2 g/Kg, IG administered as single dose measured after 14 days by HE staining based assay; type: tissue-based; conditions: in vivo, po, 2000 mg/kg, 336 h, time 14 day
[26] = Acute toxicity in fasted male mouse assessed as pathological changes in liver at 2 g/Kg, IG administered as single dose measured after 14 days by HE staining based assay; type: tissue-based; conditions: in vivo, po, 2000 mg/kg, 336 h, time 14 day
[27] = Cmax in Sprague-Dawley rat at 5 mg/kg, po administered via gavage measured up to 24 hrs by LCMS analysis; type: ADME, organism-based; design: route oral, dose 5 mg/kg, time <=24; conditions: in vivo
[28] = Acute toxicity in fasted male mouse assessed as death at 2 g/Kg, IG administered as single dose measured every day for 14 days; conditions: in vivo, po, 2000 mg/kg, 336 h, time 14 day
[29] = Acute toxicity in fasted male mouse assessed as pathological changes in kidney at 2 g/Kg, IG administered as single dose measured after 14 days by HE staining based assay; type: tissue-based; conditions: in vivo, po, 2000 mg/kg, 336 h, time 14 day
[30] = Acute toxicity in fasted female mouse assessed as increase in body weight at 2 g/Kg, IG administered as single dose measured every day for 14 days; conditions: in vivo, po, 2000 mg/kg, 336 h, time 14 day
[31] = Metabolic stability in rat liver microsomes assessed as half life at 1 uM presence of NADPH measured up to 60 mins by LC-MS/MS analysis; type: ADME, Microsome
[32] = Acute toxicity in fasted female mouse assessed as pathological changes in heart at 2 g/Kg, IG administered as single dose measured after 14 days by HE staining based assay; type: tissue-based; conditions: in vivo, po, 2000 mg/kg, 336 h, time 14 day
[33] = Inhibition of CYP3A4M in human liver microsomes using midazolam as substrate incubated for 15 to 45 mins in presence of NADPH; type: ADME
[34] = Acute toxicity in fasted male mouse assessed as pathological changes in brain at 2 g/Kg, IG administered as single dose measured after 14 days by HE staining based assay; type: tissue-based; conditions: in vivo, po, 2000 mg/kg, 336 h, time 14 day
[35] = Inhibition of CYP3A4T in human liver microsomes using testosterone as substrate incubated for 15 to 45 mins in presence of NADPH; type: ADME
[36] = AUCinfinity in Sprague-Dawley rat at 5 mg/kg, po administered via gavage measured up to 24 hrs by LCMS analysis; type: ADME, organism-based; design: route oral, dose 5 mg/kg, time <=24; conditions: in vivo
[37] = Aqueous solubility of the compound in PBS buffer at pH 2 measured after 24 hrs by HPLC-UV analysis; type: physicochemical
[38] = AUCinfinity in Sprague-Dawley rat at 1 mg/kg, iv measured up to 24 hrs by LCMS analysis; type: ADME, organism-based; design: route intravenous, dose 1 mg/kg, time <=24; conditions: in vivo
[39] = AUC (0 to last) in Sprague-Dawley rat at 1 mg/kg, iv measured up to 24 hrs by LCMS analysis; type: ADME, organism-based; design: route intravenous, dose 1 mg/kg, time <=24; conditions: in vivo
[40] = AUC (0 to last) in Sprague-Dawley rat at 5 mg/kg, po administered via gavage measured up to 24 hrs by LCMS analysis; type: ADME, organism-based; design: route oral, dose 5 mg/kg, time <=24; conditions: in vivo
[41] = Aqueous solubility of the compound in PBS buffer at pH 7 measured after 24 hrs by HPLC-UV analysis; type: physicochemical
[42] = Half life in Sprague-Dawley rat at 5 mg/kg, po administered via gavage measured up to 24 hrs by LCMS analysis; type: ADME, organism-based; conditions: in vivo
[43] = Aqueous solubility of the compound in PBS buffer at pH 7.4 measured after 24 hrs by HPLC-UV analysis; type: physicochemical
[44] = MRTinfinity in Sprague-Dawley rat at 1 mg/kg, iv measured up to 24 hrs by LCMS analysis; type: ADME, organism-based; conditions: in vivo
[45] = MRTinfinity in Sprague-Dawley rat at 5 mg/kg, po administered via gavage measured up to 24 hrs by LCMS analysis; type: ADME, organism-based; conditions: in vivo

half-life [1]: 50.4 min
Compound: N#Cc1ccc(Nc2nccc(Nc3c(F)cc(-c4ccncc4)cc3F)n2)cc1

Compound: Br.Cc1cnc(Nc2ccc(C#N)cc2)nc1Nc1c(F)cc(-c2ccncc2)cc1F
half-life [2]: 48.6 min
pIC50 [3]: 5.35
Activity [4]: Non-Toxic
pIC50 [5]: 5.66
pIC50 [6]: 5.12
Activity [7]: Non-Toxic
Activity [8]: Non-Toxic
pIC50 [9]: 5.39
microsomal CLint at 1 µM [10]: 31.8 µL/min/mg
half-life at 1 µM [11]: 56 min
Activity [12]: Non-Toxic
microsomal CLint at 1 µM [13]: 14.6 µL/min/mg
Activity [14]: Non-Toxic
Activity [15]: Toxic
Activity [16]: Non-Toxic
bioavailability [17]: 0.9%
half-life at 1 µM [18]: 95 min
Activity [19]: Non-Toxic
Activity [20]: Non-Toxic
Activity [21]: Non-Toxic
Tmax [22]: 15 min
microsomal CLint at 1 µM [23]: 24.9 µL/min/mg
Activity [24]: Non-Toxic
Activity [25]: Non-Toxic
Activity [26]: Non-Toxic
Cmax [27]: 2.14 ng/mL
Activity [28]: Non-Toxic
Activity [29]: Non-Toxic
Activity [30]: Toxic
half-life at 1 µM [31]: 44 min
Activity [32]: Non-Toxic
pIC50 [33]: 4.54
Activity [34]: Non-Toxic
pIC50 [35]: 4.72

Compound: Cc1cc(-c2ccncc2)cc(C)c1Nc1ccnc(Nc2ccc(C#N)cc2)n1.Cl
AUC(0-inf) [36]: 861 ng·h/mL
solubility at 24 h [37]: 584 µg/mL
half-life [2]: 21.6 min
pIC50 [3]: 4.77
Activity [4]: Non-Toxic
AUC(0-inf) [38]: 290 ng·h/mL
AUC(0-t) at 24 h [39]: 285 ng·h/mL
AUC(0-t) at 24 h [40]: 835 ng·h/mL
pIC50 [5]: 5.17
pIC50 [6]: < 4.52
Activity [7]: Non-Toxic
Activity [8]: Non-Toxic
pIC50 [9]: < 4.52
solubility at 24 h [41]: 9.1 µg/mL
half-life [42]: 132 min
Activity [12]: Non-Toxic
Activity [14]: Non-Toxic
Activity [15]: Toxic
Activity [16]: Non-Toxic
bioavailability [17]: 59.4%
Activity [19]: Non-Toxic
solubility at 24 h [43]: 9 µg/mL
Activity [20]: Non-Toxic
Activity [21]: Non-Toxic
Tmax [22]: 60 min
MRT inf [44]: 28.8 min
Activity [24]: Non-Toxic
Activity [25]: Non-Toxic
Activity [26]: Non-Toxic
MRT inf [45]: 126 min
Cmax [27]: 365 ng/mL
Activity [28]: Non-Toxic
Activity [29]: Non-Toxic
Activity [30]: Toxic
Activity [32]: Non-Toxic
pIC50 [33]: 4.68
Activity [34]: Non-Toxic
pIC50 [35]: 4.70

Source: ChEMBL document CHEMBL5042530, “Discovery of Novel Pyridine-Dimethyl-Phenyl-DAPY Hybrids by Molecular Fusing of Methyl-Pyrimidine-DAPYs and Difluoro-Pyridinyl-DAPYs: Improving the Druggability toward High Inhibitory Activity, Solubility, Safety, and PK” (J Med Chem, 2022)
